Measurements as given in US20250346550A1, “METHODS OF MODULATING ENDONUCLEASE G USING RESVERATROL AND ITS DERIVATIVES” (THE REGENTS OF THE UNIVERSITY OF COLORADO A BODY CORPORATE, priority 2022, published 2025).
“Also recorded” adds a separate entry of the source.

How the values were obtained:
[1] = test system: paternal mitochondrial elimination (PME) in C. elegans wild-type (N2) cross-fertilized embryos; assay: PME fluorescent microscopy assay (MTR-stained paternal mitochondrial clusters), N2 males x N2 hermaphrodites; assay type: in vivo; conditions: for effect on PME when males were treated: 50 μM pretreatment of males before mating (FIG. 3a, b); for dynamics of PME at different embryonic stages: 50 μM vs 0.25% ethanol mock (FIG. 1g, FIG. 12); for effect on PME: 64-cell embryos (FIG. 1b, d); for effect on PME of the UV-irradiated solution: compound irradiated with UV for 4 hours, 64-cell embryos (FIG. 1e, f); for concentration sufficient to significantly affect PME / concentration showing maximal PME activity: dose series (FIG. 7a, b); for concentration sufficient to significantly affect PME: cis: inhibition, 64-cell, trans: enhancement, 16-cell; for concentration showing maximal PME activity: cis: inhibitory, trans: enhancing
Protocol: FIG. 1. […] The numbers of MTR-stained paternal mitochondrial clusters in 64-cell cross-fertilized embryos from mating of MTR-stained N2 males with N2 hermaphrodites in the presence of the indicated compounds (100 μM) were scored. n≥15 embryos for each compound. b, d-g, Quantification of MTR-stained paternal mitochondrial clusters in 64-cell stage embryos (b, d-f) or in embryos at the indicated stage (g) from the cross between MTR-stained N2 males and N2 hermaphrodites, in the presence of 0.25% ethanol (Mock) or 50 μM of the indicated compound. In each experiment, n>40 embryos (b,d,e), n=20 embryos (f), and n≥10 embryos (g) were scored, respectively. […] Data are mean±s.e.m. **P<0.01, ***P<0.001; n.s., not significant, two-sided, unpaired t-test.
FIG. 7. Effects of different dosages of resveratrol isomers on PME. a, b, The effects of different dosages of cis-resveratrol (a) and trans-resveratrol (b) on PME. The numbers of MTR-stained paternal mitochondrial clusters in 64-cell embryos (a) or 16-cell embryos (b) from mating of MTR-stained N2 males with N2 hermaphrodites in the presence of the indicated concentrations of resveratrol isomers were scored. […] N2 hermaphrodites and MTR-stained uaDf5/+ males were mated as indicated in the presence of 0.25% ethanol (Mock, d), 50 μM trans-resveratrol (e), or 50 μM cis-resveratrol (f). Males also carried smIs42, an integrated Psur-5sur-5::gfp transgene, which directs GFP expression in all somatic cells in most developmental stages, and was used to track cross progeny. A single cross-fertilized embryo or larva (MTR- or GFP-positive) at the indicated stage was analyzed by PCR. uaDf5/+ and N2 hermaphrodites were controls.
FIG. 12. […] Quantification of MTR-stained paternal mitochondrial clusters at the indicated embryonic stages from the cross between MTR-stained N2 males and N2 hermaphrodites, in the presence of 0.25% ethanol (Mock) or 50 μM of the indicated compound. In each experiment, n≥10 embryos embryos. Data are mean±s.e.m. **P<0.01, ***P<0.001; n.s., not significant, two-sided, unpaired t-test.
Following fertilization, paternal mitochondria are rapidly depolarized and damaged in fertilized eggs, which could generate and release reactive oxygen species (ROS) that affect PME and embryo development. We thus screened twelve small molecules derived from natural products that have been used as antioxidants for the potential activity in modulating PME (FIG. 6a), using a fluorescent microscopy assay. In this assay, C. elegans wild-type (N2) males prestained with Mitotracker Red (MTR), a mitochondrion-specific fluorescent dye, were mated with unstained N2 hermaphrodites in the presence of the compound of interest ([…]) and the cross-fertilized embryos were examined for the presence of MTR-stained paternal mitochondria or mitochondrial clusters.

[2] = test system: PME defect of rad-23 deficient animals (proteasome pathway); assay: PME microscopy assay in rad-23(tm2595) crosses; assay type: in vivo, C. elegans; conditions: 50 μM, 64-cell embryos (FIG. 3d)
Protocol: FIG. 3. Resveratrol isomers target CPS-6 to affect PME. a, b, Both cis-resveratrol and trans-resveratrol act paternally to affect PME. The numbers of MTR-stained paternal mitochondrial clusters in embryos at 64-cell (a) or 16-cell (b) stage from the indicated crosses were scored. N2 males or hermaphrodites were pretreated with 0.25% ethanol (Mock), 50 μM cis-resveratrol (a), or 50 μM trans-resveratrol (b) as indicated before mating. c-g, Quantification of MTR-stained paternal mitochondrial clusters in 64-cell embryos from the indicated crosses treated with 0.25% ethanol (Mock), 50 μM cis-resveratrol, and 50 μM trans-resveratrol, respectively. Alleles used are lgg-1(bp523), cps-6(tm3222) and rad-23(tm2595). Data are mean s.e.m; n≥15 embryos (a) and n≥20 embryos (b, c-g) were scored in each experiment. ***P<0.001; n.s., not significant, two-sided, unpaired t-test. h, Resveratrol isomers enhance or inhibit the nuclease activity of CPS-6 in a plasmid DNA cleavage assay. 10 ng of CPS-6 were incubated with 0.25% ethanol (Mock), 20 μM cis-resveratrol, or 20 μM trans-resveratrol in dark at 4° C. for 1.5 hours, before 1 μg of the pPD49.78 plasmid DNA were added to the reactions. After further incubation at 30° C. for 1 hour, the reactions were resolved on a 1% agarose gel. Three different forms of plasmid DNA are indicated. […]

[3] = HPLC analysis of resveratrol isomer composition / interconversion; assay type: physicochemical; conditions: UV irradiation 4 hours at 0° C.; for fraction converted into the other isomer on UV exposure: pure isomer, 50 μM solution
Protocol: FIG. 2. High performance liquid chromatography analysis of resveratrol isomers. a, b, e-g HPLC profiles and peak retention times detected at 303 nm of 1.0 μg commercially “pure” trans-resveratrol (a), 1.0 μg of commercially “pure” cis-resveratrol (b), 20 μL of 50 μM aged trans-resveratrol solution (e), 20 μL of 50 μM commercially “pure” trans-resveratrol solution subjected to UV irradiation for 4 hours at 0° C. (f), and 20 μL of 50 μM commercially “pure” cis-resveratrol solution subjected to UV irradiation for 4 hours at 0° C. (g). Due to the different extinction coefficients of the resveratrol isomers, standard curves of trans-resveratrol (c) and cis-resveratrol (d) were generated by analyzing a series of working solutions for each isomer. Good linear correlations (R^2≥0.9999) were acquired over the concentration range of 0-45 μM trans-resveratrol (c) and 0-110 μM cis-resveratrol (d), with the corresponding regression equations. (h) Compositions of the resveratrol isomers in the indicated samples, without or with UV irradiation (see Methods) as quantified by HPLC.
To confirm the interconversion between trans-resveratrol and cis-resveratrol and to quantitatively measure the ratio of cis- and trans-isomers in the resveratrol solution, we performed high performance liquid chromatography (HPLC) analysis, which can effectively separate trans- and cis-isomers (FIG. 2a, b). […] This ratio of trans- and cis-resveratrol accounts for the unexpected PME inhibition by the aged trans-resveratrol solution (FIG. 1a, b), because cis-resveratrol could inhibit PME (FIG. 1d) and became the dominant isomer in this aged trans-resveratrol solution (FIG. 2h).

Row | Structure (SMILES) | effect on PME when males were treated [1] | dynamics of PME at different embryonic stages [1] | effect on PME ([1]; 50 μM) | effect on PME of the UV-irradiated solution ([1]; 50 μM) | concentration sufficient to significantly affect PME [1] | concentration showing maximal PME activity [1] | effect on PME defects in rad-23 deficient animals [2] | fraction converted into the other isomer on UV exposure [3] | effect on PME when only hermaphrodites were treated ([1]; 50 μM, males mock treated (FIG. 3a)) | average paternal mitochondrial clusters in 64-cell embryos ([1]; freshly prepared, 50 μM (FIG. 1d)) | cis-resveratrol remaining in the mixture after UV exposure [3]
1 | Oc1ccc(/C=C/c2cc(O)cc(O)c2)cc1 [trans-resveratrol, 3,5,4′-trihydroxy-trans-stilbene] | only acted through males to enhance PME | accelerated elimination of paternal mitochondria; also recorded: identical activity in promoting PME | did not inhibit PME | acquired the activity to inhibit PME | 25 µM | 50 µM | inhibited | 68.5% |  |  | 
2 | Oc1ccc(/C=C\c2cc(O)cc(O)c2)cc1 [cis-resveratrol] | PME was suppressed | blocked rapid elimination of paternal mitochondria | inhibited PME better than the aged trans-resveratrol | reduced PME inhibitory activity | 1 µM | 50 µM | enhanced | 40% | PME proceeded normally | 16 clusters | 60%
